Assay results reported in Sander's compilation of Henry's law constants (doi:10.1021/es970763v).

Assay: Henry solubility constant Hcp at 298.15 K (mol/(m3 Pa))
Conditions: reference: Welke et al. (1998)

Row | Compound | Henry solubility constant Hcp
1 | C=CCCl [3-chloro-1-propene] | 0.0037
2 | ClCCl [dichloromethane] | 3.7
3 | Cc1ccccc1C [1,2-dimethylbenzene] | 0.0022
4 | C=CC#N [2-propenenitrile] | 0.031
5 | CC(C)=O [propanone] | 0.096
6 | C=C(C)C1CC=C(C)CC1 (stereo not drawn) [1-methyl-4-(1-methylethenyl)-cyclohexene] | 0.00024
7 | Clc1ccccc1 [chlorobenzene] | 0.0027
8 | CC(=O)CC(C)C [4-methyl-2-pentanone] | 0.047
9 | CC(Cl)CCl (stereo not drawn) [1,2-dichloropropane] | 0.0055
10 | C=Cc1ccccc1 [ethenylbenzene] | 0.0025
11 | CCCCOC(C)=O [butyl ethanoate] | 0.027
12 | CCCOC(C)=O [propyl ethanoate] | 0.037
13 | ClCC1CO1 (stereo not drawn) [(chloromethyl)-oxirane] | 0.29
14 | CCOC(C)=O [ethyl ethanoate] | 0.034
15 | CC#N [ethanenitrile] | 0.34
16 | CCC[N+](=O)[O-] [1-nitropropane] | 0.16
17 | Cc1ccccc1 [methylbenzene] | 0.0014
18 | c1ccccc1 [benzene] | 0.0016
